Measured values reported in US10526317B2, “Benzocyanine compounds” (PIERCE BIOTECHNOLOGY, INC., priority 2012, dated 2020).
“Also recorded” adds a separate entry of the source.

Tests used:
[1] = Dye toxicity, H&E histology of heart, liver, spleen, lungs, kidney; format: in vivo; details: H&E staining of tissues after 24 h
Method: After the final time point, animals were sacrificed and their organs collected for ex vivo imaging to confirm and quantify dye accumulation in tumors, tissues, and other organs such as heart, liver, spleen, GI tract, lungs, and kidney. Images were taken before (pre), and at 0 min, 10 min, 30 min, 1 hour, 3 hour, 6 hour, 12 hour, and 24 hour post injection. To test dye toxicity, heart, liver, spleen, lungs and kidney tissues were gathered from one mouse from each cohort, fixed, stained with hematoxylin and eosin (H&E), and evaluated.
Colorimetric images were acquired at 20× on a Nikon 90i microscope.

[2] = Absorption/emission profiles and spectral properties of the dyes; format: physicochemical
Method: The following properties of 679 Compound 1-NHS were compared with commercially available dyes.
Emission/excitation profiles for inventive and commercial compounds was determined by reconstituting the compounds in DMF at 10 mg/ml and then diluting in PBS buffer pH 7.2 to 10 μg/ml. Absorbance spectra were collected on Cary UV spectrophotometer and emission spectra were collected on Tecan Safire, shown in FIG. 1 where solid lines represent absorbance spectra and dashed lines represent emission spectra, for DyLight 680-NHS (purple), DyLight 680B-NHS (blue), 679 Compound 1-NHS (red), and Company B Compound-NHS (black). The maximum absorbance and emission for each compound is shown below.
The following properties of 679 Compound 1-NHS, 679 Compound 4/4-NHS (V08-15173), and 679 Compound 4/4-NHS (V10-04152) were compared with commercially available dyes.

[3] = Photobleaching without anti-fade, U2OS cells stained with lamin B1/dye-conjugated GAR; format: physicochemical
Method: Photobleaching of inventive and commercial compounds without anti-fade reagent was examined. U2OS cells stained with lamin B1/dye-conjugated GAR were exposed to bright light (3.4V) for 8 sec at intervals of 1 sec, the overall capture amounting to a total of about 15 min using the TR filter Obj.: 20× NA: 0.4 on the Zeiss Axio Observer .Z1 microscope. The image stacks collected from the time-lapse experiment were analyzed using ImageJ software to determine the decay rate of fluorescence intensity. The raw intensity was normalized to initial intensity for each conjugate and the photobleaching curve was plotted against time, as shown in FIG. 48. Immunostaining with 679 Compound 4/4 conjugate had shown about 2 to 3-fold brighter staining intensity compared to DyLight 680 Dye.

[4] = In vivo biodistribution and clearance of free dye; set-up: species or system nude mice; details: 100 μL of 1 mg/mL hydrolyzed dye IV via retro orbital plexus, imaged to 24 h
Method: In in vivo biodistribution, the mice received intravenous dye injections via the retro orbital plexus and were imaged on a Carestream MSFX Imager (690 nm excitation/750 nm emission) before injection and at 0 h, 3 h, 6 h, 12 h, and 24 h post injection. After the final time point, animals were sacrificed and organs were collected for ex vivo imaging. Toxicity was evaluated by investigating the dissected tissue section.
Biodistribution and clearance was investigated in the live animals over time by measuring the clearance or specific retention of the dye/labeled target. Experiments were performed in triplicate on nude mice. 100 μL of 1 mg/mL hydrolyzed dye solution was IV injected via the retro orbital plexus. Animals were imaged using 690 nm excitation and 750 nm emission at 140 mm FOV on a Carestream XTREME (10 s) Imager. Images taken before (pre) and at 0 min, 10 min, 30 min, 1 hour, 3 hour, 6 hour, 12 hour and 24 hours post injection are shown in FIG. 44B. After the final time point, the organs were collected for ex vivo imaging to confirm and quantify accumulation of the agent in tumors, tissues, and other organs (heart, liver, spleen, GI tract, lungs and kidney), as shown in FIG. 44C using triplicate mice. 679 Compound 4/4 allowed for probe conjugation, high fluorescence with excellent sensitivity for deep-tissue in vivo imaging, and target quantification in tissues.

lamin A [5] = test: Immunofluorescence of nuclear envelope in U2OS cells, mouse anti-lamin A, dye-GAM (FIG. 43); format: cell-based, human; details: FIG. 43A
Method: U2OS (human bone cancer) or HeLa cells were seeded at 5,000 cells per well in 96-well plates and incubated for 18-20 hours at 37° C., 5% CO2 in a humidified incubator. The cells were fixed with 4% paraformaldehyde and permeabilized with 0.1% Thermo Scientific Surfact-Amps X-100 Detergent, then blocked for nonspecific IgG binding. Cells were incubated with a target-specific primary antibody for 30 minutes at room temperature (RT). After washing with PBS containing 0.05% Tween™-20 Detergent Solution, cells were incubated for 30 minutes at RT with 4 μg/mL of the appropriate secondary antibody conjugated with 679 Compound 4/4 and compared to similarly conjugated counterparts (DyLight 680, Alexa Fluor™ 680, and CF™ 680 Dyes) for 30 minutes at RT. The conjugates were affinity purified goat anti-mouse IgG (H+L) (GAM) or goat anti-rabbit IgG (H+L) (GAR). […] Microscopy time lapse experiments to measure dye photostability were performed using the appropriate shift-free optical filter set with a 40×/1.3 oil objective on a Zeiss Axio Observer™ .Z1 fluorescence microscope using an ORCA-ER-1394 Hamamatsu, CCD Digital Camera and the AxioVison™ Release 4.7 Software. […]
The nuclear envelop in U2OS cells was fluorescently labeled with mouse anti-lamin A primary antibody and detected with goat anti-mouse conjugated to 679 Compound 4/4-NHS, DyLight 680-NHS, Alexa Fluor 680-NHS and CF 680-SE Dyes. […]

lamin A [6] = test: Immunofluorescence, U2OS cells, mouse anti-lamin A, dye-GAM secondary (FIG. 25); format: cell-based, human
Method: The inventive compounds and commercial dye were evaluated for immunofluorescence in a second cell based assay using the following protocol. Frozen U20S cell plates stored at −20° C. were placed overnight at 4° C. Storage buffer (PBS) was removed and the cells were permeabilized for 15 min (100 μl/well) with 0.1% Triton-X100 in 1×PBS buffer. Plates were blocked for 30 min in 2% BSA in 1× PBS-0.1% Trion-X100. Primary antibodies diluted in 2% BSA in 1×PBS-0.1% Trion-X100 were added to the plates (column 1-11; column 12 included only blocker) and incubated five hours at room temperature. Mouse anti-lamin A was added at 2 μg/ml and rabbit anti-lamin B1 was added at 4 μg/ml. After incubation, the antibody solution was removed from the plates and the plates were washed PBS-0.5% Tween-20 (2×100 μl/well). Next, GAM and GAR secondary antibodies labeled with DyLight 680-NHS, DyLight 680B-NHS, 679 Compound 1-NHS, and Cy5.5 Mono Ester were diluted to 4 μg/ml in PBS and incubated with the cells for one hour at room temperature. […], DyLight 680B-NHS, 679 Compound 1-NHS, […] PBS and then serially diluted 1:1 in the plate to the following concentrations: 2 μg/ml, 1 μg/ml, 0.5 μg/ml, 0.25 μg/ml, 0.125 μg/ml and/or 0.0625 μg/ml. The plates were washed 3× with 100 μl/well PBS, and Hoechst stain diluted to 0.1 μg/ml in PBS was added to each well (100 μl/well). The plates were scanned on ArrayScan Plate Reader for imaging and quantitation.
Quantitative analysis of FIG. 25 data, expressed as Mean Total Intensity, which is the average total intensity of all pixels within a defined area or defined primary object such as a nucleus, is shown below.

lamin A [7] = test: Immunofluorescence detection of lamin A in U2OS cells, dye-GAM secondary (FIG. 29A-C and repeat); format: cell-based, human; details: for Mean Total Intensity, Negative control: no primary antibody
Method: In the indicated experiments, the inventive compounds and commercial dye were evaluated for immunofluorescence in a cell based assay using the following protocol. Frozen U20S cell plates which were stored at −80° C. were thawed for 45 minutes at 50° C. Storage buffer (PBS) was removed and the cells were permeabilized for 15 minutes with 0.1% Triton-X100 in 1×PBS buffer (100 μl/well). The cell plate was blocked for 60 minutes in 2% BSA/PBS-0.1% Triton-X100. Primary antibody, either rat anti-Grp94 (5 μg/ml), mouse anti-lamin A (10 μg/ml), or rabbit anti-lamin B1 (10 μg/ml), diluted in 2% BSA/PBS-0.1% Triton-X100 was added to the plate and incubated for 1 hour at room temperature. Control wells contained only 2% BSA/PBS-0.1% Triton-X100 blocker. After incubation, the antibody solution was removed from the plate and the plate was washed three times with 100 μl/well of PBS-0.5% Tween-20 and one time with 100 μl/well PBS. GARat, GAM, or GAR secondary antibodies labeled with various molar excess of the inventive or commercial compound were diluted to 4 μg/ml in PBS and incubated for 1 hour at room temperature. The plates were washed three times with 100 μl/well of PBST and once with 100 μl/well PBS, and Hoechst (diluted to 0.1 μg/ml in PBS) was added to each well (100 μl/well). The plates were scanned on ArrayScan Plate Reader or ToxInsight Instrument.
Quantitative analysis of a repeat experiment of FIG. 29A-C are shown below.

[8] = system: rabbit IgG immunoglobulin; test: Functional fluorescence plate assay, dye-GAR conjugates; format: binding; details: LiCOR Odyssey, FIGS. 17, 19
Method: Performance of the dye-GAM conjugates, dye-GAR conjugates, and dye-SA conjugates was evaluated in a functional plate assay. Wells of a 96 white opaque plate or black clear-bottom plate were coated with target proteins mouse IgG immunoglobulin, rabbit IgG immunoglobulin, or biotinylated bovine serum albumin (BBSA). One hundred μl mouse or rabbit IgG, or BBSA at a concentration of 10 μg/ml was applied to the corresponding wells in columns 1 and 2. The target proteins were serially diluted 1:1 from the wells in columns 2 to 11 using 100 μl PBS. One hundred μl of the samples from the wells in column 11 were discarded. One hundred μl PBS was added to the wells in column 12. The plates were incubated overnight at 4° C. and then blocked 2×200 μl with Thermo Scientific SuperBlock® Blocking Buffer. The coated plates were washed 2×200 μl with PBS-Tween and 1×200 μl with PBS. Based on the calculated concentrations, conjugates were diluted 1:250 in PBS, added to the corresponding plates (100 μl/well) and then incubated for one hour in the dark. The plates were washed with 2×200 μl with PBS-Tween and 1×200 μl with PBS and filled with PBS buffer (100 μl/well) prior to scanning the white opaque plates on Tecan Safire using 679 nm excitation/702 nm emission or scanning the black clear-bottom plates on LiCor Odyssey at 700 channel, to detect fluorescence intensity.

Compound: COCCOCCOCCOCC[N+]1=C(/C=C/C=C/C=C2/N(CCOCCOCCOCCOCCC(=O)O)c3ccc4c(S(=O)(=O)[O-])cc(S(=O)(=O)O)cc4c3C2(C)CCOCCOCCOCCOC)C(C)(CCOCCOCCOCCOC)c2c1ccc1c(S(=O)(=O)O)cc(S(=O)(=O)O)cc21 (centres unmarked) [679 Compound 4/4]
- toxicity (in words) [1]: low intrinsic toxicity; also recorded: No tissue damage was observed from histology
- emits at [2]: 706 nm
- excites at [2]: 684 nm
- photostability (in words) ([3]; absence of anti-fade agent): slightly less stable than DyLight 680 dye
- staining intensity, fold brighter compared to DyLight 680 Dye ([3]; immunostaining): 2 to 3 fold
- biodistribution and clearance (in words) [4]: rapid clearance through kidney and/or gastrointestinal tract; also recorded: fast whole-body dye uptake and displayed rapid dye clearance mainly through the kidney and GI tract
- staining intensity, fold brighter compared to DyLight 680-GAM, Alexa Fluor 680-GAM and CF 680-GAM (lamin A [5]): 2-3 fold

Compound: Cy5.5
- Mean Total Intensity (lamin A [6]; GAM conjugated at 2X molar excess): 211945
- Mean Total Intensity (lamin A [6]; GAM conjugated at 3X molar excess): 342208
- Mean Total Intensity (lamin A [6]; GAM conjugated at 4X molar excess): 451111

Compound: COCC[N+]1=C(/C=C/C=C/C=C2/N(CCCCCC(=O)O)c3ccc4c(S(=O)(=O)[O-])cc(S(=O)(=O)[O-])cc4c3C2(C)C)C(C)(CCCS(=O)(=O)[O-])c2c1ccc1c(S(=O)(=O)[O-])cc(S(=O)(=O)[O-])cc21.[Na+].[Na+].[Na+].[Na+] (centres unmarked) [679 Compound 1/1, 2-{(1E,3E)-5-[3-(5-Carboxypentyl)-1,1-dimethyl-6,8-disulfo-1,3-dihydro-benzo[e]indol-(2E)-ylidene]-penta-1,3-dienyl}-3-(2-methoxy-ethyl)-1-methyl-6,8-disulfo-1-(3-sulfopropyl)-1H-benzo[e]indolium]
- Mean Total Intensity (Average) (lamin A [7]; GAM conjugate 4 μg/ml, 2.5 X molar excess): 29229
- Mean Total Intensity (Average) (lamin A [7]; GAM conjugate 4 μg/ml, 5.0 X molar excess): 49279
- Mean Total Intensity (Average) (lamin A [7]; GAM conjugate 4 μg/ml, 7.5 X molar excess): 28782
- Mean Total Intensity (Average) (lamin A [7]; GAM conjugate 4 μg/ml, 10 X molar excess): 30098
- Mean Total Intensity (Average) (lamin A [7]; GAM conjugate 4 μg/ml, 15 X molar excess): 48071
- Mean Total Intensity, Negative control (lamin A [7]; 2.5 X): 5628
- Mean Total Intensity, Negative control (lamin A [7]; 5.0 X): 5859
- Mean Total Intensity, Negative control (lamin A [7]; 10 X): 6115
- Mean Total Intensity, Negative control (lamin A [7]; 15 X): 7277
- S/B (lamin A [7]; repeat experiment, 2.5 X): 8.9
- Mean Total Intensity (Average) (lamin A [7]; repeat experiment, 2.5 X molar excess): 77195
- S/B (lamin A [7]; repeat experiment, 5 X): 16.2
- Mean Total Intensity (Average) (lamin A [7]; repeat experiment, 5 X molar excess): 140772
- S/B (lamin A [7]; repeat experiment, 10X): 7.8
- Mean Total Intensity (Average) (lamin A [7]; repeat experiment, 10X molar excess): 159948
- S/B (lamin A [7]; repeat experiment, 15 X): 12.3
- Mean Total Intensity (Average) (lamin A [7]; repeat experiment, 15 X molar excess): 199626
- Mean Total Intensity, Negative control (lamin A [7]; repeat experiment, 2.5 X): 8711
- Mean Total Intensity, Negative control (lamin A [7]; repeat experiment, 5 X): 8674
- Mean Total Intensity, Negative control (lamin A [7]; repeat experiment, 10X): 20481
- Mean Total Intensity, Negative control (lamin A [7]; repeat experiment, 15 X): 16277
- Raw Fluorescence Intensity, quenching at high molar excess (in words) [8]: saturating at 25×; also recorded: apparent quenching at 1000 ng/well at 25×
